Test results: US20090324515A1, “ANTIMICROBIAL FLAVOURING COMPOSITION” (priority 2006, published 2009)
In brackets after ≈: the same amount, converted by molar mass.

Legend:
[1] = system: Fusobacterium nucleatum DSM 20482; test: Determination of minimum inhibitory concentration (microdilution assay); details: for MIC: Fusobacterium nucleatum, DSM20482, 72 h, read-out: MIC Fusobacterium nucleatum
[2] = system: Streptococcus mutans DSM 6178; test: as above; details: for MIC: Streptococcus mutans, DSM6178, 24 h, read-out: MIC Streptococcus mutans
[3] = system: Prevotella melaninogenica; test: as above; details: 72 h, read-out: MIC Prevotella melaninogenica
[4] = system: Porphyromonas gingivalis DSM 20709; test: as above; details: for MIC: Porphyromonas gingivalis, DSM20709, 72 h, read-out: MIC Porphyromonas gingivalis
Streptococcus sp. = details: Amicbase; cited from earlier work
Proteus mirabilis = details: Amicbase; cited from earlier work
[5] = system: Mycobacterium tuberculosis subsp. tuberculosis; details: Amicbase; cited from earlier work
Eschericia coli = details: Amicbase; cited from earlier work
Pseudomonas aeruginosa = details: Amicbase; cited from earlier work
Staphylococcus aureus = details: Amicbase; cited from earlier work
[6] = 72 h, 37° C., anaerobic, without CO2, average of 3 MIC values

SMILES | MIC [1] [mg/L] | MIC [2] [mg/L] | MIC [4] [mg/L] | further results
CCCCC(C)C(=O)O (centres unmarked) [2-Methylhexanoic acid, 2-methylhexanoic acid] | 500 (≈ 3.84 mM) | ≤ 150 | 1300 (≈ 9.99 mM) | MIC [3]: 1500 mg/L (≈ 11.5 mM)
Cc1ccc(O)cc1C [3,4-dimethylphenol] | 500 (≈ 4.09 mM) | ≤ 150 | ≤ 150 | MIC (Streptococcus sp.): 2000 ppm; MIC (Proteus mirabilis): 4000 ppm; MIC [5]: 20 ppm; MIC (Eschericia coli): 4000 ppm; MIC (Pseudomonas aeruginosa): 4000 ppm; MIC [3]: 590 mg/L (≈ 4.83 mM); MIC (Staphylococcus aureus): 2000 ppm
CC(=O)C1=C(C)[C@@H]2C[C@@]3(C1)[C@H](C)CC[C@H]3C2(C)C [Acetyl cedrene, acetyl cedrene] |  |  |  | MIC Fusobacterium nucleatum [1, 6]: 500 ppm; MIC Streptococcus mutans ([2]; 24 h, 37° C., anaerobic, with CO2, average of 3 MIC values): 250 ppm; MIC Porphyromonas gingivalis [4, 6]: 150 or less ppm
CC1=CCC(CCC(C)CO)C1(C)C (centres unmarked) [Brahmanol, 2-methyl-4-(2,2,3-trimethyl-3-cyclopenten-1-yl)-1-butanol] | 250 (≈ 1.27 mM) | 250 (≈ 1.27 mM) | ≤ 150 | 
O=C/C=C/c1ccccc1 [Cinnamic aldehyde, cinnamic aldehyde] | 500 (≈ 3.78 mM) | 250 (≈ 1.89 mM) | ≤ 150 | 
O=C1CCCCCCCCCCCCCC1 [Cyclopenta-decanone, cyclopentadecanone] | 1000 (≈ 4.46 mM) | 1000 (≈ 4.46 mM) | ≤ 150 | 
COC(=O)c1c(C)cc(O)c(C)c1O [Methylatrarate, methyl-2,4-dihydroxy-3,6-dimethyl-benzoate] | ≤ 150 | 1000 (≈ 5.1 mM) | ≤ 150 | 
